Laboratory results published in ChEMBL document CHEMBL1201862, “PubChem BioAssay data set” (2004).
Calls of active or inactive are those of the source.

Assays:
[1] = Counterscreen for AddAB inhibitors: absorbance-based bacterial cell-based high throughput dose response assay for inhibitors of bacterial viability. [Related pubchem assays (depositor defined):AID435030, AID449728, AID449731, AID488942, AID488955, AID488956]; assay type: functional
Exodeoxyribonuclease V = Exodeoxyribonuclease V (Escherichia coli (strain K12), UniProt P04993+P07648+P08394); test: RecBCD inhibition via phage-restricted bacterial growth – absorbance, V66 E. coli, mutant T4 phage, counter-screen for AddAB inhibitor project, dose response (AID 492957); assay type: functional, cell-based, Escherichia coli str. K-12 substr. MG1655
Cytochrome P450 2D6 = Cytochrome P450 2D6 (Homo sapiens, UniProt P10635);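 note: CYP2D6 member of a cytochrome P450 panel assay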
Cytochrome P450 3A4 = Cytochrome P450 3A4 (Homo sapiens, UniProt P08684);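 note: CYP3A4 tested as one member of a cytochrome P450 panel screen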
Cytochrome P450 2C19 = Cytochrome P450 2C19 (Homo sapiens, UniProt P33261); test: Cytochrome panel assay with activity outcomes. Panel member name: p450-cyp2c19 Compounds with AC50 equal or less than 10 uM are considered active; assay type: functional
[2] = alpha-synuclein stem-loop luciferase translation blockers – H4 neuroglioma cells, luminescence, confirmation (AID 1988); assay type: functional, cell-based
INS1 = test: INS-1E survival protection against cytokine death – cell-based, luminescence, retest, dose response (AID 449756); assay type: functional; conditions: Rattus norvegicus;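 note: cell death triggered by IL-1 beta plus TNF-alpha plus IFN-gamma mixture; protective hits raise ATP signal compared with cytokine alone wells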
[3] = target: T1, Intestinal-type alkaline phosphatase (Homo sapiens, UniProt P09923); test: activation of human intestinal alkaline phosphatase – biochemical, luminescent, uHTS hits, set 2, dose response (AID 488817); assay type: functional;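 note: potency of activators that raise enzyme activity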
[4] = target: T1, Intestinal-type alkaline phosphatase; test: human intestinal alkaline phosphatase activators, dose response, biochemical, luminescence, uHTS hits (AID 463120); assay type: functional
Streptococcus = test: GAS UMAA2166 growth inhibition – luminescence, BacTiterGlo, counter-screen for streptokinase expression inhibitor project, dose response (AID 1915); assay type: functional, organism-based;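 note: potency for reduction of bacterial viability or growth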
[5] = luciferase reporter signal reduction – luminescence, H4-C neuroglioblastoma cells, dose response (AID 2458); assay type: functional, cell-based;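 note: H4 neuroglioblastoma cells stably carrying a luciferase reporter gene fusion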
Streptokinase A = target: T2, Streptokinase A (Streptococcus pyogenes serotype M1, UniProt P10520); test: viability-normalized secreted streptokinase activity reduction – plasminogen activation absorbance, OD405, dose response (AID 1914); assay type: functional, Streptococcus pyogenes M1 GAS;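 note: secreted streptokinase activity via plasminogen activation per viability signal from cell pellet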
T2 sequence (P10520 whole entry): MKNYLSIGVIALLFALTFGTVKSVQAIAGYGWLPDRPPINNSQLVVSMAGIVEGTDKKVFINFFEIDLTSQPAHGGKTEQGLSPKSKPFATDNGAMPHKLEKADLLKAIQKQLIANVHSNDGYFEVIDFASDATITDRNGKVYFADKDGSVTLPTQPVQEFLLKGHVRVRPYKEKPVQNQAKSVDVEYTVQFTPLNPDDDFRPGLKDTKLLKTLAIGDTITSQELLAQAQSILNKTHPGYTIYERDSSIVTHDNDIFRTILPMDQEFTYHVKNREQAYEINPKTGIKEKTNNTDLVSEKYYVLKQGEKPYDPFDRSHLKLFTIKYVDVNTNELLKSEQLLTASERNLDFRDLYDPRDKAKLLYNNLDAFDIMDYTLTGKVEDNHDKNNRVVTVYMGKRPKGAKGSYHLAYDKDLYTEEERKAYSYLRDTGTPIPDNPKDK

[6] = target: T3, Alkaline phosphatase, tissue-nonspecific isozyme (Homo sapiens, UniProt P05186); test: activation of tissue-nonspecific alkaline phosphatase – biochemical, TNAP isozyme, human IAP uHTS hits, selectivity assay for human IAP activator project, dose response (AID 488886); assay type: functional;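 note: potency of compounds raising TNAP activity as a selectivity check on IAP activators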
T3 sequence (P05186 whole entry): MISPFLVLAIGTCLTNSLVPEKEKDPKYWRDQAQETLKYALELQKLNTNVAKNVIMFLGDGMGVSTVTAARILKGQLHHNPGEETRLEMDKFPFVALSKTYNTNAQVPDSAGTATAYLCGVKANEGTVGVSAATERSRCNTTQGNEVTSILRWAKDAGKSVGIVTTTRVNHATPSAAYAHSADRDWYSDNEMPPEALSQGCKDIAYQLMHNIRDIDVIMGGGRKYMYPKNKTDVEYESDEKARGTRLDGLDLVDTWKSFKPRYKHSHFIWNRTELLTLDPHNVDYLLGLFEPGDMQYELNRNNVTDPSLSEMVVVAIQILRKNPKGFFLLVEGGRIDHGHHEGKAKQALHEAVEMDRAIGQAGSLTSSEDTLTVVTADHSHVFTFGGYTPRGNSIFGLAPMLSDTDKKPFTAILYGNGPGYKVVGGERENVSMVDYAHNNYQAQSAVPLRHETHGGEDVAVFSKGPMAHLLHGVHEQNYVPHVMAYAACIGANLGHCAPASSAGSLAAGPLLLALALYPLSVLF

cells = assay type: functional, cell-based
[7] = alpha-synuclein stem-loop translation blockers – luminescence, H4 neuroglioblastoma cells, dose confirmation, confirmation (AID 2454); assay type: functional, cell-based;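 note: H4 neuroglioblastoma cells carrying an alpha-synuclein 5'UTR luciferase reporter; potency for inhibition of the luciferase signal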
[8] = system: Streptococcus sp. 'group A'; test: Streptococcus pyogenes SK(-)GAS viability under kanamycin – luminescence, BacTiterGlo, confirmation, counter-screen for streptokinase expression inhibitor project, dose response (AID 1900); assay type: functional, organism-based
[9] = target: Intestinal-type alkaline phosphatase (Mus musculus, UniProt P24822); test: PubChem AID 488874; assay type: functional
[10] = HEK-293T viability loss after treatment – luminescence, T-cell screen hits, cytotoxicity control for TCR NF-kB inhibitor project, dose response (AID 489026); assay type: functional, cell-based;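 note: cells exposed to compound about 14 hours before the viability readout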
[11] = target: Cyclin-dependent kinase 5/CDK5 activator 1 (Homo sapiens, UniProt Q00535); test: blockade of human CDK5 activity – biochemical, cherry-picked samples, set 2, dose response (AID 504545)
HEK293 [12] = test: NOD2 signaling inhibitors in MDP-stimulated cells, cell-based, uHTS, luminescence (AID 2001); assay type: functional; conditions: Homo sapiens
HEK293 [13] = test: cells; assay type: functional, cell-based; conditions: Homo sapiens
HEK293 [14] = test: cells; assay type: functional, cell-based; conditions: Homo sapiens; remark: listed apart in the source
HEK293 [15] = test: inhibition of NOD1-driven NF-kB reporter – cell-based, luminescence, uHTS, primary screen (AID 1578); assay type: functional; conditions: Homo sapiens

T1 sequence (P09923 whole entry): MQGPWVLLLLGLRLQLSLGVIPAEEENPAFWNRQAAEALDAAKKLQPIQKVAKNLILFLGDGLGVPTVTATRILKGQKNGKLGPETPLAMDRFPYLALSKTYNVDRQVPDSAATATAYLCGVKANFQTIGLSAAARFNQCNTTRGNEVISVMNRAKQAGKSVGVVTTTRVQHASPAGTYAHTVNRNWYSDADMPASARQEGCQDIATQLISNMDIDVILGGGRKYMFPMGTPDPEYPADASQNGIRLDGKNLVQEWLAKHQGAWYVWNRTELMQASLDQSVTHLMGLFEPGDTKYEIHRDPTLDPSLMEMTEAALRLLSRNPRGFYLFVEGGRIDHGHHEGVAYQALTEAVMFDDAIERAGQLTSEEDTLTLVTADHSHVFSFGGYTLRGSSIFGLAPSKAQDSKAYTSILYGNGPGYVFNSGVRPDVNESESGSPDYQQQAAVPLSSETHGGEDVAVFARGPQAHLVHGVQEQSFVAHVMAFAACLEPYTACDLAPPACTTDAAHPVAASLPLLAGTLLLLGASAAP
Exodeoxyribonuclease V, sequence (P04993 whole entry): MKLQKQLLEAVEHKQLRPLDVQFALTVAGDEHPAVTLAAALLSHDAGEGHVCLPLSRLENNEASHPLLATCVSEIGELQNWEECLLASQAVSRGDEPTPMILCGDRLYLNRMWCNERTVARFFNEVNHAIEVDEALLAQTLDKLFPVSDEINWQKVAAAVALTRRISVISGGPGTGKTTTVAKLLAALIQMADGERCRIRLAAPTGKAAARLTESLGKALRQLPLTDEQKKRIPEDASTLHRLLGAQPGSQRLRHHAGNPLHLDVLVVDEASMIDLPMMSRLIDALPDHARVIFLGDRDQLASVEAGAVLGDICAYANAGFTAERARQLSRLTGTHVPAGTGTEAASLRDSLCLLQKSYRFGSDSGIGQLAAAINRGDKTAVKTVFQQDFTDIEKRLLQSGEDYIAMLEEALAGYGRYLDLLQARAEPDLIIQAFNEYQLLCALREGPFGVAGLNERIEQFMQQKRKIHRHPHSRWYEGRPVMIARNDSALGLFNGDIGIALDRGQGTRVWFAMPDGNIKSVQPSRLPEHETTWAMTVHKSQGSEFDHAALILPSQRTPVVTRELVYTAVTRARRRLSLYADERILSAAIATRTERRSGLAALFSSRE
Exodeoxyribonuclease V, sequence (P07648 whole entry): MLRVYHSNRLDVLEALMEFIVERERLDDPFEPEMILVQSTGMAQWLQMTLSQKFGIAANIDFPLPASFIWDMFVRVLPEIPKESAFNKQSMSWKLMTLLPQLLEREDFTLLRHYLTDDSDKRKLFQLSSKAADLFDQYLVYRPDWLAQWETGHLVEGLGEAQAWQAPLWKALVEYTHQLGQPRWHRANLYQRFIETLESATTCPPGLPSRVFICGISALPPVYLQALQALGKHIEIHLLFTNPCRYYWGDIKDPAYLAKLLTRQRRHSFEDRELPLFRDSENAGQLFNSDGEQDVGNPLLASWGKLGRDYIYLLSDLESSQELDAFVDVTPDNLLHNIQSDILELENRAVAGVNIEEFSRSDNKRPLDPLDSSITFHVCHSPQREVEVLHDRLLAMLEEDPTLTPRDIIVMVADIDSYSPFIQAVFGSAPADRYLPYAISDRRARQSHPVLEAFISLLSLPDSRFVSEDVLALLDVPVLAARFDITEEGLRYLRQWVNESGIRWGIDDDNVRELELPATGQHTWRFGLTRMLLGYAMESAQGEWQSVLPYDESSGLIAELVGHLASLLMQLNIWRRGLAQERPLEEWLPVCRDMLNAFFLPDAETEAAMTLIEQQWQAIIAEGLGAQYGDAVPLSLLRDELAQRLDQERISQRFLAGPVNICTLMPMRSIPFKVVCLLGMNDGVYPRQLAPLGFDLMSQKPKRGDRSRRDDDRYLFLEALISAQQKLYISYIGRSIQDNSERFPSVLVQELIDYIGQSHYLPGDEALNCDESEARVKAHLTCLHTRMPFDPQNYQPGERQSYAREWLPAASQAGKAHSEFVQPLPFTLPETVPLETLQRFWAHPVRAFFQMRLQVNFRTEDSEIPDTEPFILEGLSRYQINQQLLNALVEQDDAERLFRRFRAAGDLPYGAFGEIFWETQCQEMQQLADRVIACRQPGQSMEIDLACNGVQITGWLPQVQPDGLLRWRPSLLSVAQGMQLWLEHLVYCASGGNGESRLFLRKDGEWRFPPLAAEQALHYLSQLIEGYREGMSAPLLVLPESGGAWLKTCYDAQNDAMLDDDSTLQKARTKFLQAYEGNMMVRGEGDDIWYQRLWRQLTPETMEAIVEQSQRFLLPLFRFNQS
Exodeoxyribonuclease V, sequence (P08394 whole entry): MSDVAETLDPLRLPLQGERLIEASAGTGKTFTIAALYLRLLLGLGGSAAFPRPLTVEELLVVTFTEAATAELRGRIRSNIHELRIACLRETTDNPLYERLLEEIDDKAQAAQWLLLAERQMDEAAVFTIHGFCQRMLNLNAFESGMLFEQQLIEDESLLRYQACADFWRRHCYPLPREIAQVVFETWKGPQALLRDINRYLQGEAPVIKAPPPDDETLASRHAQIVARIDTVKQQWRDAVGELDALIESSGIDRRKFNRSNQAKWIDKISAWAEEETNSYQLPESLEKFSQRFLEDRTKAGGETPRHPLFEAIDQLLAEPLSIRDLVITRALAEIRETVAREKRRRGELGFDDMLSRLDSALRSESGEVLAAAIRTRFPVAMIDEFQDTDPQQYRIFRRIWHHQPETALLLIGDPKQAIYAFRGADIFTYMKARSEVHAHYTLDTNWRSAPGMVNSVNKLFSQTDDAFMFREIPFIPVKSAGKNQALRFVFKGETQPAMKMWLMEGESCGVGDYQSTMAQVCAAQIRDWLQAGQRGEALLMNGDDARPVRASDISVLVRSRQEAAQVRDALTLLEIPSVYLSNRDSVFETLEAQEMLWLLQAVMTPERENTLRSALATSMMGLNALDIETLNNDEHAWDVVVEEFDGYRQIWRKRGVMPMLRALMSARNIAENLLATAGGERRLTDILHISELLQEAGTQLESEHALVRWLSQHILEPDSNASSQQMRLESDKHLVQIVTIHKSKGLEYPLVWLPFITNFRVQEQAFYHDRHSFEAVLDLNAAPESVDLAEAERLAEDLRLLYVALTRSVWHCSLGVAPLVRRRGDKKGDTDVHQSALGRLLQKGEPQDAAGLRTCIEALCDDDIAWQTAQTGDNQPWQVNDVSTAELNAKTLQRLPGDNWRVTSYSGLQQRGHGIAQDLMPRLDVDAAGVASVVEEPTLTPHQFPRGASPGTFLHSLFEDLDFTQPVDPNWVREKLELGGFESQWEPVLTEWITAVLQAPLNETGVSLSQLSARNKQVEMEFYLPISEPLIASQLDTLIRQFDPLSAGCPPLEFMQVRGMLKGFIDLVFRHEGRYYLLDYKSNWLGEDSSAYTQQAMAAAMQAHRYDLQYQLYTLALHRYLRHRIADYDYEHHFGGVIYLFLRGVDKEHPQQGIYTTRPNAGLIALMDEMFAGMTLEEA
Cytochrome P450 2C19, sequence (P33261 whole entry): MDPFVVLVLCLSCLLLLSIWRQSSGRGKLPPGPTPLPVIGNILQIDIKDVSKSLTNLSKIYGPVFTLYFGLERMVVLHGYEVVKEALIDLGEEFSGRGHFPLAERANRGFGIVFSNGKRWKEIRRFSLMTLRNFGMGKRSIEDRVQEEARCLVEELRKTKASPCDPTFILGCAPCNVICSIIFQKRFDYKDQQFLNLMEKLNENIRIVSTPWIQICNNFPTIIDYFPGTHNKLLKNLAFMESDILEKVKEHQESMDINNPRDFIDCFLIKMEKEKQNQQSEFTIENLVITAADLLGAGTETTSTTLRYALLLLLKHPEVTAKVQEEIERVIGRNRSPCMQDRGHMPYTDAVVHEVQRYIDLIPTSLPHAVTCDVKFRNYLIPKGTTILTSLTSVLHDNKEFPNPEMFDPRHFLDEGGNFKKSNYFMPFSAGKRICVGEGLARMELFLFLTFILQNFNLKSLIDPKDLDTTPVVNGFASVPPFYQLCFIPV
Cytochrome P450 2D6, sequence (P10635 whole entry): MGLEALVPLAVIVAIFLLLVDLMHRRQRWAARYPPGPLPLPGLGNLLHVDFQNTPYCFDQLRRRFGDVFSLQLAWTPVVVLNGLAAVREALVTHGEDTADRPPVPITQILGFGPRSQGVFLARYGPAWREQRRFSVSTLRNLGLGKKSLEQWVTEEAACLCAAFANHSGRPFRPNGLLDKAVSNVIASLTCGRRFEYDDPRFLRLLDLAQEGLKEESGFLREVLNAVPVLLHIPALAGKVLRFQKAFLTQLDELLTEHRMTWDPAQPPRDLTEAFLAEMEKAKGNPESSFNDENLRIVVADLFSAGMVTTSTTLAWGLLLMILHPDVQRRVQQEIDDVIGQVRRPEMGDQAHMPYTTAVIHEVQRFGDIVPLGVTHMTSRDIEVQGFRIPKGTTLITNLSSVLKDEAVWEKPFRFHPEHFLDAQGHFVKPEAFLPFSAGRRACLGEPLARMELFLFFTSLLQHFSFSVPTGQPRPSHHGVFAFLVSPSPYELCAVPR
Intestinal-type alkaline phosphatase (Mus musculus, UniProt P24822), sequence (P24822 whole entry): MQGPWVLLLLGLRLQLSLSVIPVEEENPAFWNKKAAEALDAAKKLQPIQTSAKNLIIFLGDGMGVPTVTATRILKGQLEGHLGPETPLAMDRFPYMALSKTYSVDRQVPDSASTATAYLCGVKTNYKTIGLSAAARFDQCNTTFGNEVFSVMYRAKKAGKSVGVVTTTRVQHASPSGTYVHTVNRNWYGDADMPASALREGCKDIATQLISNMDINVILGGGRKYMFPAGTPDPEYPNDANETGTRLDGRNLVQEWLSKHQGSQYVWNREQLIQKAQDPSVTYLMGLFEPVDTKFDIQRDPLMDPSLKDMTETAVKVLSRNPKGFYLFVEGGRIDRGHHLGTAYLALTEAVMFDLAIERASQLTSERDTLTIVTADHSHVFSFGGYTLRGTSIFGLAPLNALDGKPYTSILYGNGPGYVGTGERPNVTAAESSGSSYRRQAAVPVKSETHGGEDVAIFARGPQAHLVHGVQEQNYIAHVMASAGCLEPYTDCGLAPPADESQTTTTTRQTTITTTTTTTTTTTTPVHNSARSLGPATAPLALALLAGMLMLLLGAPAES

Structure (SMILES): CCOC(=O)c1cn(CC)c2cc(N3CCSCC3)c(F)cc2c1=O
- IC50 [1]: 63.8 µM (inactive)
- IC50 (Exodeoxyribonuclease V): > 119 µM (inactive)

Structure (SMILES): C[C@@H]1/C=C\CC(=O)OC[C@H](C)C(=O)N[C@@H](Cc2ccccc2)C(=O)OC1
- AC50 (Cytochrome P450 2D6): inconclusive
- AC50 (Cytochrome P450 3A4): 3.16 µM (inconclusive)
- AC50 (Cytochrome P450 2C19): inconclusive

Structure (SMILES): Cc1c(C(=O)N/N=C/c2c(O)ccc3ccccc23)nnn1-c1nonc1N
- EC50 [2]: < 0.1 µM (active)
- AC50 (INS1): 0.317 µM (active)
- EC50 [3]: 8.92 µM (active)
- EC50 [4]: 7.47 µM (active)
- EC50 (Streptococcus): > 150 µM (not active)
- EC50 [5]: 0.898 µM (active)
- EC50 (Streptokinase A): > 150 µM (not active)
- EC50 [6]: 8.59 µM (active)
- EC50 (cells): 0.958 µM (active)
- EC50 [7]: 0.953 µM (active)
- EC50 [8]: 5.56 µM (active)
- IC50 [9]: 95.2 µM (active)
- IC50 [10]: > 80 µM (inactive)

Structure (SMILES): Cc1nn(-c2nccs2)c2c1C(=O)CC(C)(C)C2Br (centres undefined)
- AC50 [11]: 7.37 µM (active)

Structure (SMILES): C=CCSc1nsc(NC(=O)Nc2ccc(F)cc2)n1
- AC50 (INS1): 3.1 µM (active)
- IC50 (HEK293 [12]): 2.93 µM (active)
- IC50 (HEK293 [13]): 2.64 µM (active)
- EC50 (Streptococcus): 30.4 µM (active)
- EC50 (Streptokinase A): 23.4 µM (active)
- IC50 (HEK293 [14]): 10.1 µM (active)
- IC50 [1]: > 119 µM (inactive)
- EC50 [8]: 8.13 µM (active)
- IC50 (Exodeoxyribonuclease V): > 119 µM (inactive)
- EC50 (HEK293 [15]): 3.56 µM (active)
